The results in this text go back to US8871777B2, “Phenylpyrimidone compounds, the pharmaceutical compositions, preparation methods and uses thereof” (Topharman Shanghai Co., Ltd., priority 2008, dated 2014).

The term IC50 denotes the concentration needed to halve the response being measured. A higher IC50 goes with a need for much substance.

The target in the assay is T1, human blood platelet PDE5 (Homo sapiens, UniProt O76074).
T1 construct: obtained by suitably treating various tissues and separating the enzyme with FPLC; from tissue; host or cells: human blood platelets
Description: PDE5 enzyme inhibition activity test (scintillation proximity). Format: biochemical. The conditions noted are these: PDE5 table. Here is the method:
More specifically, PDE5 and PDE3 were obtained from human blood platelet, and PDE6 was separated from bovine retina. Upon enzyme was separated out, the enzyme inhibition activity test would be carried out immediately. The said enzyme inhibition activity test was performed by directly detecting the scintillation proximity of AMP/GMP using TRKQ7100 and TRKQ7090 kits, which was generally as follows. In the presence of different concentrations of inhibitor and a small amount of substrate, 10 μl of buffer (50 mM Tris/HCl PH 7.5, 8.3 mM MgCl2, 1.7 mM EGTA) was added, and then water was added to a final volume of 100 μl. The reaction was initiated with a fixed amount of enzyme, incubated at 30° C. for 30 min, and then quenched with 50 μl of yttrium silicate beads comprising zinc sulphate. After shaken for 20 min, the reaction mixture was put in dark and settled for 30 min, and then readed on a BECKMAN LS6500 MULTI-PURPOSE SCINTILLATION COUNTER.
The compound `CCCOc1ccc(-c2nc(CC)c(CC)c(=O)[nH]2)cc1-c1nc(CC)c(CC)c(=O)[nH]1` [Example 87, 2,2′-(4-n-Propoxy-1,3-phenylene)bis(5,6-diethylpyrimid-4(3H)-one)] gave an IC50 of 3.29 nM.
To `CCCOc1ccc(S(=O)(=O)NC(CCCNC(N)=O)C(=O)O)cc1-c1nc(CC)c(CC)c(=O)[nH]1` (centres unmarked) [Example 118, 2-(N-(3-(4,5-diethyl-1,6-dihydro-6-oxopyrimidin-2-y1)-4-n-propoxyphenyl)sulfonyl)amino-5-ureavaleric acid] belongs 0.76 nM; to `CCCOc1ccc(S(=O)(=O)NC(CCCN)C(=O)O)cc1-c1nc(CC)c(CC)c(=O)[nH]1` (centres unmarked) [Example 119, 2-(N-(3-(4,5-diethyl-1,6-dihydro-6-oxopyrimidin-2-yl)-4-n-propoxyphenyl)sulfonyl)amino-5-aminovaleric acid], 6.31 nM; to `CCCOc1ccc(C(=O)NC(CCCNC(=N)N)C(=O)O)cc1-c1nc(CC)c(CC)c(=O)[nH]1` (centres unmarked) [Example 149, 2-(3-(4,5-diethyl-1,6-dihydro-6-oxopyrimidin-2-yl)-4-n-propoxybenzamido)-5-guanidylvaleric acid], 1.8 nM.
To `CCCOc1ccc(C(=O)NC(C)C(=O)OC)cc1-c1nc(CC)c(CC)c(=O)[nH]1` (centres unmarked) [Example 151, methyl 2-(3-(4,5-diethyl-1,6-dihydro-6-oxopyrimidin-2-yl)-4-n-propoxybenzamido)propionate] belongs 0.54 nM; to `CCCOc1ccc(C(=O)NC(C)C(N)=O)cc1-c1nc(CC)c(CC)c(=O)[nH]1` (centres unmarked) [Example 155, N-(1-aminoformylethyl)-3-(4,5-diethyl-1,6-dihydro-6-oxopyrimidin-2-yl)-4-n-propoxybenzamide], 0.54 nM; to `CCCOc1ccc(S(=O)(=O)NC2C(O)OC(CO)C(O)C2O)cc1-c1nc(CC)c(CC)c(=O)[nH]1` (centres unmarked) [Example 208, 5,6-Diethyl-2-(2-n-propoxy-5-((tetrahydro-2,4,5-trihydroxy-6-(hydroxymethyl)-2H-pyran-3-ylamino)sulfonyl)phenyl]pyrimid-4(3H)-one], 3.69 nM.
To `CCCOc1ccc(C(=O)NC(CCCNC(N)=O)C(=O)O)cc1-c1nc(CC)c(CC)c(=O)[nH]1` (centres unmarked) [Example 209, 2-(3-(4,5-diethyl-1,6-dihydro-6-oxopyrimidin-2-yl)-4-n-propoxybenzamido)-5-ureavaleric acid] belongs 0.64 nM.
As to `CCCOc1ccc(C(=O)NC(CCCN)C(=O)O)cc1-c1nc(CC)c(CC)c(=O)[nH]1` (centres unmarked) [Example 210, 2-(3-(4,5-diethyl-1,6-dihydro-6-oxopyrimidin-2-yl)-4-n-propoxybenzamido)-5-aminovaleric acid], half-maximal inhibition (IC50) was put at 6.23 nM.
For the compound `CCCOc1ccc(C(=O)NC2C(O)OC(CO)C(O)C2O)cc1-c1nc(CC)c(CC)c(=O)[nH]1` (centres unmarked) [Example 211], the IC50 worked out at 0.9 nM.
For `CCCOc1ccc(C(=O)NCCS(N)(=O)=O)cc1-c1nc(CC)c(CC)c(=O)[nH]1` [Example 212, 2-(3-(4,5-diethyl-1,6-dihydro-6-oxopyrimidin-2-yl)-4-n-propoxybenzamido)ethylsulphonamide], the 50% inhibitory concentration (IC50) turned out to be 0.79 nM.
To `CCCOc1ccc(C(=O)NCCS(=O)(=O)N2CCN(C)CC2)cc1-c1nc(CC)c(CC)c(=O)[nH]1` [Example 213, 3-(4,5-diethyl-1,6-dihydro-6-oxopyrimidin-2-yl)-N-(4-methyl-1-piperazinylsulfonylethyl)-4-n-propoxybenzamide] belongs 2.8 nM.
To `CCCOc1ccc(C(=O)NCCS(=O)(=O)N(CC)CC)cc1-c1nc(CC)c(CC)c(=O)[nH]1` [Example 214, 3-(4,5-diethyl-1,6-dihydro-6-oxopyrimidin-2-yl)-N-(N,N-diethylaminosulfonylethyl)-4-n-propoxybenzamide] belongs 1.8 nM.
To `CCCOc1ccc(C(=O)NCCCS(N)(=O)=O)cc1-c1nc(CC)c(CC)c(=O)[nH]1` [Example 215, 3-(3-(4,5-diethyl-1,6-dihydro-6-oxopyrimidin-2-yl)-4-n-propoxybenzamido)propylsulphonamide] belongs 0.88 nM.
